Measured values as given in patent publication US12643903B2, “Bifunctional compounds for degradation of EGFR and related methods of use” (BeiGene, Ltd., priority 2020, dated 2026).

What was measured:
Format in all cases: cell-based
Conditions in all cases: 16 h treatment, EGFR degradation by HTRF
EGFR LTC = biological target: T1, EGFR LTC (Homo sapiens, UniProt P00533, C797S/L858R/T790M); assay: Cell Degradation 3: EGFR degradation in BaF3 cells (LTC), HTRF assay
T1 construct: expressed in transfected cells; host or cells: BaF3
Procedure, shortened: (§1)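 BaF3 cells expressing EGFR (LTC triple mutant C797S/L858R/T790M or DTC) exposed to compounds for 16 h, 8 doses from 4-fold dilution, 0.2% DMSO. Residual EGFR quantified by HTRF in lysates (triple mutant lysate diluted 1:1); DC50 from four-parameter logistic fit.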

EGFR [1] = biological target: T2, EGFR (Homo sapiens, UniProt P00533, L858R/T790M); assay: Cell Degradation 1: EGFR degradation in H1975 cells, HTRF assay
T2 construct: endogenous in cells; host or cells: H1975
Procedure, shortened: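 EGFR levels were read by HTRF (337 nm excitation, 665 and 620 nm emission) in lysates of H1975 cells exposed to compound for 16 h, with antibodies incubated overnight at room temperature. Fitting percent inhibition versus concentration to a Hill equation gave DC50.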

EGFR DTC = assay: Cell Degradation 3: EGFR degradation in BaF3 cells (DTC), HTRF assay
Procedure, shortened: as §1

EGFR [2] = biological target: T3, EGFR (Homo sapiens, UniProt P00533, DEL746-750); assay: Cell Degradation 2: EGFR degradation in HCC827 cells, HTRF assay
T3 construct: endogenous in cells; host or cells: HCC827
Procedure, shortened: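 DC50 values derive from four-parameter fits of percent inhibition versus concentration. The HTRF read-out (665/620 nm ratio, 337 nm excitation) followed 16 h compound exposure of HCC827 cells, 1 h lysis and overnight room-temperature incubation with the HTRF antibodies.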

T3 sequence (P00533 with tags, fused parts or gaps DEL746-750): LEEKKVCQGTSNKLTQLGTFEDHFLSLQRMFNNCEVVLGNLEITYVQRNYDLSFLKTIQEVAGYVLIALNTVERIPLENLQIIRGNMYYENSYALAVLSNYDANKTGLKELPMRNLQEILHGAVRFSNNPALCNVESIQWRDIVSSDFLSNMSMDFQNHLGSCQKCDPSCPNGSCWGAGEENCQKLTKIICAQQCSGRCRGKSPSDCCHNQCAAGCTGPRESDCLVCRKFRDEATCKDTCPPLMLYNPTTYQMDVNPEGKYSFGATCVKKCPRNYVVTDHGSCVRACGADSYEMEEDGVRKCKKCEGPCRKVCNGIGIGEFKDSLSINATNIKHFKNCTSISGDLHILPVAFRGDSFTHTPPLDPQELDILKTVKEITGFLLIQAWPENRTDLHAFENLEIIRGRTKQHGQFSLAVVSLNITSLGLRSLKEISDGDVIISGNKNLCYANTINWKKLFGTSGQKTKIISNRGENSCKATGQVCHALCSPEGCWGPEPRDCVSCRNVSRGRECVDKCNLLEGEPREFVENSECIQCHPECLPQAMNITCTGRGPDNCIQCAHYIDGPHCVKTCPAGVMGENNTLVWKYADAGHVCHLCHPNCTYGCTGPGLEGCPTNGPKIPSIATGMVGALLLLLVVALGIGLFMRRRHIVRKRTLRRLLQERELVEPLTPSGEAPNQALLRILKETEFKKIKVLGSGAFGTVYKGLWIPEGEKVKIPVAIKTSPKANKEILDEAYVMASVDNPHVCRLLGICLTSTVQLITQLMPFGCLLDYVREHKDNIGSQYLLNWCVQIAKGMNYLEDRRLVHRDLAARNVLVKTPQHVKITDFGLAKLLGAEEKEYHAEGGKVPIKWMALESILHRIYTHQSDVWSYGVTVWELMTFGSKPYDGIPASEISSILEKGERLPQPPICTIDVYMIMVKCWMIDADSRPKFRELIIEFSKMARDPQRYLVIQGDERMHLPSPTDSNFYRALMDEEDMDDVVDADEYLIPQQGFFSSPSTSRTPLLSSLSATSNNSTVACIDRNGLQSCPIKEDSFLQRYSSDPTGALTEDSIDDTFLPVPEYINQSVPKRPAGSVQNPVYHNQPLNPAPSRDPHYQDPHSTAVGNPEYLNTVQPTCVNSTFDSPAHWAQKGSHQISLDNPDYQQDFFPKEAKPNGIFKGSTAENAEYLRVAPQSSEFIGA
T3 sequence (Q96SW2 whole entry partner): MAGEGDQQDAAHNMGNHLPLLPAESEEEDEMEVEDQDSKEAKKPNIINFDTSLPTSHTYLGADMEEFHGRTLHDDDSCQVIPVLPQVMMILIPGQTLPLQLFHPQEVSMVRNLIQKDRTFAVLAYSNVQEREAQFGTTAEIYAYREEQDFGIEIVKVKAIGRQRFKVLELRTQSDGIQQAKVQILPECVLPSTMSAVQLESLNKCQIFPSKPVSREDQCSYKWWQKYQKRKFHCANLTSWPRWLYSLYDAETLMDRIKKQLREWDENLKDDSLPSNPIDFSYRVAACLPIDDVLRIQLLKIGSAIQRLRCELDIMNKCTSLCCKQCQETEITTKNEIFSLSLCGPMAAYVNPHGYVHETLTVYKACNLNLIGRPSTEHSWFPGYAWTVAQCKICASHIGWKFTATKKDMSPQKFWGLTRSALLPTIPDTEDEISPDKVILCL
T2 sequence (P00533 25-1210 T790M/L858R): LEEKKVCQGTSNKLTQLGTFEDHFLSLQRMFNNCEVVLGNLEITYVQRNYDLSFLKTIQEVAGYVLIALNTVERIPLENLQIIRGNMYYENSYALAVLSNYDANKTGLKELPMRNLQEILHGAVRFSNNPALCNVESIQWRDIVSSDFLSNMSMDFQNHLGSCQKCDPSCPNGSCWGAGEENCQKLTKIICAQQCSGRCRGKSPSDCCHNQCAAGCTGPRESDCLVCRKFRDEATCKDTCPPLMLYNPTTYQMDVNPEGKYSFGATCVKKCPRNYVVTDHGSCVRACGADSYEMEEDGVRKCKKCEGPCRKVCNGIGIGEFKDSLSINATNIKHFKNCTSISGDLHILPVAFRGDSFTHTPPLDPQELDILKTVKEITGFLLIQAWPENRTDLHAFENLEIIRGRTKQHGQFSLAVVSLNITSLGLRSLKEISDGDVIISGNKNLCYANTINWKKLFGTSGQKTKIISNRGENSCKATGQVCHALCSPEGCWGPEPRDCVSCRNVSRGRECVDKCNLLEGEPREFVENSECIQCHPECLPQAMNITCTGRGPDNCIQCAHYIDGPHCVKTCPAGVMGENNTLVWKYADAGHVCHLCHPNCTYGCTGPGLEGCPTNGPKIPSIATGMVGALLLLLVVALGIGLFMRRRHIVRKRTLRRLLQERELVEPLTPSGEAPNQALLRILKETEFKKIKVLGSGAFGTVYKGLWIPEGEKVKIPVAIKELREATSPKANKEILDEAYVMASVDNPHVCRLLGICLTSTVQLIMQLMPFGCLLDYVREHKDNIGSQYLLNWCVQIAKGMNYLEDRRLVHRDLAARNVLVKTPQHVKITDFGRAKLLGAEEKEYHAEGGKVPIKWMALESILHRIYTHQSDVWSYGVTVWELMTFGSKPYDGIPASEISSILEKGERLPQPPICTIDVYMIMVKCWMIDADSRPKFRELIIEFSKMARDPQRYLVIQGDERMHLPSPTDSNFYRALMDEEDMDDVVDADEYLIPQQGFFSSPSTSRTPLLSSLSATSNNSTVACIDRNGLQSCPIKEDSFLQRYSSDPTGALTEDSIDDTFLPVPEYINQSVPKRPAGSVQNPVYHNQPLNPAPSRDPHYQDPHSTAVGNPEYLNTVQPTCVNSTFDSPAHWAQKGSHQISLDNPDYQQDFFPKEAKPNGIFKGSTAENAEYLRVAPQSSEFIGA
T1 sequence (P00533 25-1210 T790M/C797S/L858R): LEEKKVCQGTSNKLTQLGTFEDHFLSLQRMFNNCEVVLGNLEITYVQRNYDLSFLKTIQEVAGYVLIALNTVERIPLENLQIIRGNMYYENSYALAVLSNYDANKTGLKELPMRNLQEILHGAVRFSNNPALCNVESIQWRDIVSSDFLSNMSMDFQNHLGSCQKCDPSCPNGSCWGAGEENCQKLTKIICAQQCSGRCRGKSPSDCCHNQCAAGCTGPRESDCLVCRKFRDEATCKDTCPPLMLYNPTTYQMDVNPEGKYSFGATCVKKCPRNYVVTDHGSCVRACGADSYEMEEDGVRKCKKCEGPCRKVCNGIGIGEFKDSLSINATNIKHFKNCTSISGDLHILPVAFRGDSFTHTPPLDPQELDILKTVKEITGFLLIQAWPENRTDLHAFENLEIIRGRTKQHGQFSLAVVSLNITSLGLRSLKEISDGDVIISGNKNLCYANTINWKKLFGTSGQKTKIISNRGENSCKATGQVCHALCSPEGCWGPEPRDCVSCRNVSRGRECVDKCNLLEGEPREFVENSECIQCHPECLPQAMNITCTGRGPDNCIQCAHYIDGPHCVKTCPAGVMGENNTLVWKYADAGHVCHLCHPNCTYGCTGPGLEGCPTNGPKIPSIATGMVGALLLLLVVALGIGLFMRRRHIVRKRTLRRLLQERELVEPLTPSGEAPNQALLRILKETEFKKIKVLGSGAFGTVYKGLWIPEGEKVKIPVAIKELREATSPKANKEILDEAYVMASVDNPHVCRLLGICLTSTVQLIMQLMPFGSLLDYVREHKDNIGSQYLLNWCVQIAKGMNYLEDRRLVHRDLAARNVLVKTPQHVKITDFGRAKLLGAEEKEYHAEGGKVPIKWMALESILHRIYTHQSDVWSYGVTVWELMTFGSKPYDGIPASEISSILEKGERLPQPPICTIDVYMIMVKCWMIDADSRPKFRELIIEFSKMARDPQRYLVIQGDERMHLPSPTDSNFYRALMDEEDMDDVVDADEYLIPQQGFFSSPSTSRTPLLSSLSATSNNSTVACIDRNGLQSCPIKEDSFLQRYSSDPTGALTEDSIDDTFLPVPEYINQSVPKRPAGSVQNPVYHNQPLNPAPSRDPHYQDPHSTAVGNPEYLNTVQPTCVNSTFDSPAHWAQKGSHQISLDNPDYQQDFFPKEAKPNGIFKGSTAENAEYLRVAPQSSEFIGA

COc1cc(N2CCC(N3CCN(C[C@H]4CCN(c5ccc6c(c5)CN(C5CCC(=O)NC5=O)C6=O)C4)CC3)CC2)c(C)cc1Nc1ncc(Br)c(Nc2cccc3c2N(S(C)(=O)=O)CC3)n1 (stereo partly drawn) [Example 168, 3-(5-((R)-3-((4-(1-(4-((5-bromo-4-((1-(methylsulfonyl)indolin-7-yl)amino)pyrimidin-2-yl)amino)-5-methoxy-2-methylphenyl)piperidin-4-yl)piperazin-1-yl)methyl)pyrrolidin-1-yl)-1-oxoisoindolin-2-yl)piperidine-2,6-dione]
DC50 (EGFR LTC): 25 nM
DC50 (EGFR [1]): 7 nM
DC50 (EGFR DTC): 14 nM
DC50 (EGFR [2]): 2 nM
